The subject of data set [1] is barnyardgrass (Echinochloa crus-galli). Description: Test A preemergence. The following applies: Echinochloa crus-galli, pre-emergence, 240 h, 0 to 100 scale (0 no effect, 100 complete control), read-out: Plant response rating, Barnyardgrass; for pest or weed control at 500 g/ha: 500 g ai/ha, preemergence; for pest or weed control at 125 g/ha: Preemergence, 125 g ai/ha. The format is in vivo. An outline of the steps: (§1)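 Each rating is a visual injury score from 0 to 100 given about 10 d after treatment, judged against untreated controls kept alongside in the greenhouse. In loam soil–sand blend, seeds got a preemergence directed soil spray, while postemergence plants were 2 to 10 cm tall at spraying.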

In data set [2] the test system is pigweed (Amaranthus retroflexus). Description: Test A preemergence. The format is in vivo. To be noted: Amaranthus retroflexus, pre-emergence, 240 h, 0 to 100 scale (0 no effect, 100 complete control), read-out: Plant response rating, Pigweed; for pest or weed control at 500 g/ha: 500 g ai/ha, preemergence; for pest or weed control at 125 g/ha: Preemergence, 125 g ai/ha.

The subject of data set [3] is ryegrass, Italian (Italian ryegrass, Lolium multiflorum). Description: Test A preemergence. The format is in vivo. The following applies: Lolium multiflorum, pre-emergence, 240 h, 0 to 100 scale (0 no effect, 100 complete control), read-out: Plant response rating, Ryegrass, Italian; for pest or weed control at 500 g/ha: 500 g ai/ha, preemergence; for pest or weed control at 125 g/ha: Preemergence, 125 g ai/ha. In outline: as §1

The next data set has as its system Kochia (Kochia scoparia). Description: Test A preemergence. The format is in vivo. To be noted: Bassia scoparia, pre-emergence, 240 h, 0 to 100 scale (0 no effect, 100 complete control), read-out: Plant response rating, Kochia; for pest or weed control at 500 g/ha: 500 g ai/ha, preemergence; for pest or weed control at 125 g/ha: Preemergence, 125 g ai/ha. An outline of the steps:
as §1

In data set [4] the test system is ragweed (common ragweed, Ambrosia elatior). Description: Test A preemergence. The following applies: Ambrosia artemisiifolia, pre-emergence, 240 h, 0 to 100 scale (0 no effect, 100 complete control), read-out: Plant response rating, Ragweed; for pest or weed control at 500 g/ha: 500 g ai/ha, preemergence; for pest or weed control at 125 g/ha: Preemergence, 125 g ai/ha. The format is in vivo. An outline of the steps: as §1

Data set [5] concerns giant foxtail (Setaria faberii). Description: Test A preemergence. The format is in vivo. The following applies: Setaria faberi, pre-emergence, 240 h, 0 to 100 scale (0 no effect, 100 complete control), read-out: Plant response rating, Foxtail, Giant; for pest or weed control at 500 g/ha: 500 g ai/ha, preemergence; for pest or weed control at 125 g/ha: Preemergence, 125 g ai/ha. In outline:
as §1

`CN1CC[C@H](c2cccc(C(F)(F)F)c2)[C@@H](C(=O)Nc2ccccc2F)C1=O` [Compound 1331] showed a melting point of 113 to 116 °C. Also, in data set [1], the pest or weed control at 500 g/ha was 90% and the pest or weed control at 125 g/ha was 90%. In data set [2], the pest or weed control at 500 g/ha stood at 0% and the pest or weed control at 125 g/ha was found to be 0%. Moreover, in data set [3], the pest or weed control at 500 g/ha worked out at 80% and the pest or weed control at 125 g/ha worked out at 20%. In addition, in the data set with Kochia (Kochia scoparia), the pest or weed control at 500 g/ha is 0% and the pest or weed control at 125 g/ha came out at 0%. Moreover, in data set [4], the pest or weed control at 500 g/ha was 0% and the pest or weed control at 125 g/ha stood at 0%. Further, in data set [5], the pest or weed control at 500 g/ha stood at 100% and the pest or weed control at 125 g/ha came out at 90%.

`CN1C[C@H](c2ccc(C(F)(F)F)nc2)[C@@H](C(=O)Nc2cccc(F)c2F)C1=O` [Compound 1372] yielded a melting point of 188.1 to 192.4 °C. Moreover, in data set [1], the pest or weed control at 500 g/ha was 100% and the pest or weed control at 125 g/ha is 90%. Also, in data set [2], the pest or weed control at 500 g/ha came to 90% and the pest or weed control at 125 g/ha was 90%. In addition, in data set [3], the pest or weed control at 500 g/ha was determined as 60% and the pest or weed control at 125 g/ha was 60%. Moreover, in the data set on Kochia (Kochia scoparia), the pest or weed control at 500 g/ha was found to be 90% and the pest or weed control at 125 g/ha was determined as 90%. Moreover, in data set [4], the pest or weed control at 500 g/ha was 90% and the pest or weed control at 125 g/ha amounted to 90%. For the same compound, in data set [5], the pest or weed control at 500 g/ha came to 100% and the pest or weed control at 125 g/ha was 90%.

Consider `O=C1NC[C@H](c2cccc(C(F)(F)F)n2)[C@H]1C(=O)Nc1cccc(F)c1F` [Compound 1385], for which the melting point was in the range of 139 to 142 °C. In data set [1], the pest or weed control at 500 g/ha came out at 90% and the pest or weed control at 125 g/ha turned out to be 90%. Besides, in data set [2], the pest or weed control at 500 g/ha came out at 0% and the pest or weed control at 125 g/ha is 0%. Further, in data set [3], the pest or weed control at 500 g/ha was found to be 0% and the pest or weed control at 125 g/ha came to 0%. In the data set with Kochia (Kochia scoparia), the pest or weed control at 500 g/ha is 20% and the pest or weed control at 125 g/ha was determined as 0%. Moreover, in data set [4], the pest or weed control at 500 g/ha was 0% and the pest or weed control at 125 g/ha came out at 0%. In addition, in data set [5], the pest or weed control at 500 g/ha turned out to be 90% and the pest or weed control at 125 g/ha amounted to 90%.

`O=C1NC[C@H](c2cncc(C(F)(F)F)c2)[C@H]1C(=O)Nc1cccc(F)c1F` [Compound 1394] returned a melting point of 206 to 209 °C. In data set [1], the pest or weed control at 500 g/ha is 90% and the pest or weed control at 125 g/ha came out at 90%. Moreover, in data set [2], the pest or weed control at 500 g/ha was determined as 30% and the pest or weed control at 125 g/ha was 0%. Further, in data set [3], the pest or weed control at 500 g/ha stood at 60% and the pest or weed control at 125 g/ha stood at 50%. Moreover, in the data set with Kochia (Kochia scoparia), the pest or weed control at 500 g/ha came out at 60% and the pest or weed control at 125 g/ha was 40%. In addition, in data set [4], the pest or weed control at 500 g/ha is 80% and the pest or weed control at 125 g/ha worked out at 20%. Also, in data set [5], the pest or weed control at 500 g/ha came out at 90% and the pest or weed control at 125 g/ha came to 90%.

For the origin of these results see patent US12077503B2, “Substituted cyclic amides and their use as herbicides” (FMC CORPORATION, priority 2015, dated 2024).
